Source: paper PMC9182199, “Borylated 2,3,4,5-Tetrachlorophthalimide and Their 2,3,4,5-Tetrachlorobenzamide Analogues: Synthesis, Their Glycosidase Inhibition and Anticancer Properties in View to Boron Neutron Capture Therapy” (Molecules, 2022)

Assays:
[1] = biological target: T1, bovine kidney α-L-fucosidase (Bos taurus, UniProt Q2KIM0); test: Glycosidase inhibition, laboratory 1: α-L-fucosidase; assay type: biochemical; conditions: methanol
T1 construct: purchased Sigma-Aldrich Co
T1 sequence (Q2KIM0 23-468): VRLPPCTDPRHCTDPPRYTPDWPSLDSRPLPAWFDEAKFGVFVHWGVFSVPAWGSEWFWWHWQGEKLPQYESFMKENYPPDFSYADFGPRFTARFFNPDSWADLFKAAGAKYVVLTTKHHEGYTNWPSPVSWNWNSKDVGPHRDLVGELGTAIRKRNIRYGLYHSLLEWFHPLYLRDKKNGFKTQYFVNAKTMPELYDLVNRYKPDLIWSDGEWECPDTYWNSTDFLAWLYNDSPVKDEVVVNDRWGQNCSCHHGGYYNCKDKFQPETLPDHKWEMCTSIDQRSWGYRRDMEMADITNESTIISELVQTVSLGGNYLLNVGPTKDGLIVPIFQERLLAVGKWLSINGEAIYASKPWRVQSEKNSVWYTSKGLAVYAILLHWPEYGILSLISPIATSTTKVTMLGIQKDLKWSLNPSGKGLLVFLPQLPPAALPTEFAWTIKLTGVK
Description: The enzymes α-glucosidase (from yeast), β-glucosidases (from almond and bovine liver), α-galactosidase (from coffee beans), β-galactosidase (from bovine liver), α-mannosidase (from Jack bean), β-mannosidase (from snail), α-L-rhamnosidase (from Penicillium decumbens), α-L-fucosidase (from bovine kidney), trehalase (from porcine kidney), β-glucuronidases (from E. coli and bovine liver), amyloglucosidase (from A. niger), para-nitrophenyl glycosides, and various disaccharides were purchased from Sigma-Aldrich Co (St Louis, MO, USA).
Brush border membranes were prepared from the rat small intestine according to the method of Kessler et al. and were assayed at pH 6.8 for rat intestinal maltase using maltose. For rat intestinal maltase, porcine kidney trehalase, and A. niger amyloglucosidase activities, the reaction mixture contained 25 mM maltose and the appropriate amount of enzyme, and the incubations were performed for 10–30 min at 37 °C. The reaction was stopped by heating at 100 °C for 3 min. After centrifugation (600× g; 10 min), the resulting reaction mixture was added to the Glucose CII-test Wako (Wako Pure Chemical Ind., Osaka, Japan). The absorbance at 505 nm was measured to determine the amount of the released D-glucose. Other glycosidase activities were determined using an appropriate para-nitrophenyl glycoside as substrate at the optimum pH of each enzyme. The reaction mixture contained 2 mM of the substrate and the appropriate amount of enzyme. The reaction was stopped by addition of 400 mM Na2CO3. The released para-nitrophenol was measured spectrometrically at 400 nm. All reactions run in methanol.

Jack bean α-mannosidase = biological target: T2, Jack bean α-mannosidase (Canavalia ensiformis, UniProt C0HJB3); test: Glycosidase inhibition, laboratory 2: Jack bean α-mannosidase; assay type: biochemical; conditions: for inhibition at 400 µM: read-out: % inhibition at ~400 μM, water; for % inhibition at ~400 μM: water
T2 construct: purchased Sigma-Aldrich Co
T2 sequence (C0HJB3 1-981): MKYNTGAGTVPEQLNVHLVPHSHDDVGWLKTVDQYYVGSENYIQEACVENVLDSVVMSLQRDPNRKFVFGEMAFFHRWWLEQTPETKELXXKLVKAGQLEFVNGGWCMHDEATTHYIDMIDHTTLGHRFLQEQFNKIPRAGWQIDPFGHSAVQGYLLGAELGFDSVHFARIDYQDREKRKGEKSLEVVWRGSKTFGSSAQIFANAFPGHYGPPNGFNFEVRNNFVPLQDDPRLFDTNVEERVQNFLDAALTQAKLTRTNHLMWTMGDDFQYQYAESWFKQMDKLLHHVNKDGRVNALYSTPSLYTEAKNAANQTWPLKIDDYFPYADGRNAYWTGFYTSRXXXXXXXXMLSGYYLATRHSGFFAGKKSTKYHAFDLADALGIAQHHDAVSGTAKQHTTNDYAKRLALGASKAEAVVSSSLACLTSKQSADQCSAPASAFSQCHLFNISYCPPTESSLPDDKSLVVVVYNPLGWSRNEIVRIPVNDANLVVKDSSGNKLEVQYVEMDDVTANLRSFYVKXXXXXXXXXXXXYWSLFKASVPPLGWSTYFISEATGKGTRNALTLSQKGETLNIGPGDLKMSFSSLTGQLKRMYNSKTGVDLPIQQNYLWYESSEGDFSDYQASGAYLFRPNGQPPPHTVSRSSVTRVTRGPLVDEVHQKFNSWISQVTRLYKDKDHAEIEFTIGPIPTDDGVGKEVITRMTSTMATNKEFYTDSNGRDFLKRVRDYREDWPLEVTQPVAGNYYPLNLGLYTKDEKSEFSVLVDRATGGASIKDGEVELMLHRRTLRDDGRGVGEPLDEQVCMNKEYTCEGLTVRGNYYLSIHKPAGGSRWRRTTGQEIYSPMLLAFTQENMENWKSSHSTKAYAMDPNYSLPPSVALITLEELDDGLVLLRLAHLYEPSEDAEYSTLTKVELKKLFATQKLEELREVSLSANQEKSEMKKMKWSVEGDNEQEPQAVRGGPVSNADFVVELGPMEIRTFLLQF
Method: All enzymes and para-nitrophenyl substrates were purchased from Sigma. Enzymes were assayed at 27 °C in 0.1 M citric acid/0.2 M disodium hydrogen phosphate buffers at the optimum pH for the enzyme. The incubation mixture consisted of 10 μL enzyme solution, 10 μL of 1 mg/mL aqueous solution of extract and 50 μL of the appropriate 5 mM para-nitrophenyl substrate made up in buffer at the optimum pH for the enzyme. The reactions were stopped by addition of 70 μL 0.4 M glycine (pH 10.4) during the exponential phase of the reaction, which had been determined at the beginning using uninhibited assays in which water replaced inhibitor. Final absorbances were read at 405 nm using a Versamax microplate reader (Molecular Devices). Assays were carried out in triplicate, and the values given are means of the three replicates per assay. All reactions run in water.

| Compound | inhibition at 400 µM (Jack bean α-mannosidase) [%] | inhibition at 100 µM ([1]; 100 μM) [%] | also measured |
| --- | --- | --- | --- |
| CC1(C)OB(c2ccccc2NC(=O)c2cc(Cl)c(Cl)c(Cl)c2Cl)OC1(C)C [ortho 5, 2,3,4,5-Tetrachloro-N-(2-(4,4,5,5-tetramethyl-1,3,2-dioxaborolan-2-yl)phenyl)benzamide] | 0 |  | inhibition at 10 µM [1]: 0% |
| CC1(C)OB(c2ccccc2CNC(=O)c2cc(Cl)c(Cl)c(Cl)c2Cl)OC1(C)C [ortho 8, 2,3,4,5-tetrachloro-N-(2-(4,4,5,5-tetramethyl-1,3,2-dioxaborolan-2-yl)benzyl)benzamide] | -6.1 | 19.9 |  |
| N[C@@H](Cc1ccc(B(O)O)cc1)C(=O)O [^10B-BPA, reference compound] |  |  | inhibition % at 100 μM ([1]; 100 μM): ^cNI ^d (0%); % inhibition at ~400 μM (Jack bean α-mannosidase): −0.7% |
| CC1(C)OB(c2cccc(NC(=O)c3cc(Cl)c(Cl)c(Cl)c3Cl)c2)OC1(C)C [meta 5, 2,3,4,5-tetrachloro-N-(3-(4,4,5,5-tetramethyl-1,3,2-dioxaborolan-2-yl)phenyl)benzamide] | 2.2 | 3.3 |  |
| CC1(C)OB(c2ccc(CN3C(=O)c4c(Cl)c(Cl)c(Cl)c(Cl)c4C3=O)cc2)OC1(C)C [para 3, 4,5,6,7-Tetrachloro-2-(4-(4,4,5,5-tetramethyl-1,3,2-dioxaborolan-2-yl)benzyl)isoindoline-1,3-dione] | 16.5 | 0 |  |
| Borocaptate sodium [BSH, reference compound] |  |  | inhibition % at 1000 μM ([1]; 1000 μM): ^aNI ^b (0%); % inhibition at ~400 μM (Jack bean α-mannosidase): −18.7% |
| N[C@@H](Cc1ccc(B(O)O)cc1)C(=O)O [BPA, 4-borono-L-phenylalanine, reference compound] | 0.6 |  |  |
| CC1(C)OB(c2ccc(NC(=O)c3cc(Cl)c(Cl)c(Cl)c3Cl)cc2)OC1(C)C [para 5, 2,3,4,5-tetrachloro-N-(4-(4,4,5,5-tetramethyl-1,3,2-dioxaborolan-2-yl)phenyl)benzamide] | -8.2 | 5.1 |  |
| CC1(C)OB(c2cccc(CN3C(=O)c4c(Cl)c(Cl)c(Cl)c(Cl)c4C3=O)c2)OC1(C)C [meta 3, 4,5,6,7-Tetrachloro-2-(3-(4,4,5,5-tetramethyl-1,3,2-dioxaborolan-2-yl)benzyl)isoindoline-1,3-dione] | 30.3 |  | inhibition at 10 µM [1]: 4.7% |
